Data reported in ChEMBL document CHEMBL4507293 (2021).

Columns and labels:
[1] = target: 5-hydroxytryptamine receptor 3A (Homo sapiens) (UniProt P46098); conditions: Compound concentration 10.0 uM
[2] = target: Mitogen-activated protein kinase kinase kinase 2 (Homo sapiens) (UniProt Q9Y2U5); conditions: Compound concentration 100.0 nM
[3] = target: Citron Rho-interacting kinase (Homo sapiens) (UniProt O14578); conditions: Compound concentration 100.0 nM
[4] = target: Histamine H3 receptor (Homo sapiens) (UniProt Q9Y5N1); assay: Histamine H3 Eurofins-Panlabs radioligand binding assay; conditions: Compound concentration 10.0 uM
Histamine H3 receptor (Homo sapiens), sequence (Q9Y5N1 whole entry): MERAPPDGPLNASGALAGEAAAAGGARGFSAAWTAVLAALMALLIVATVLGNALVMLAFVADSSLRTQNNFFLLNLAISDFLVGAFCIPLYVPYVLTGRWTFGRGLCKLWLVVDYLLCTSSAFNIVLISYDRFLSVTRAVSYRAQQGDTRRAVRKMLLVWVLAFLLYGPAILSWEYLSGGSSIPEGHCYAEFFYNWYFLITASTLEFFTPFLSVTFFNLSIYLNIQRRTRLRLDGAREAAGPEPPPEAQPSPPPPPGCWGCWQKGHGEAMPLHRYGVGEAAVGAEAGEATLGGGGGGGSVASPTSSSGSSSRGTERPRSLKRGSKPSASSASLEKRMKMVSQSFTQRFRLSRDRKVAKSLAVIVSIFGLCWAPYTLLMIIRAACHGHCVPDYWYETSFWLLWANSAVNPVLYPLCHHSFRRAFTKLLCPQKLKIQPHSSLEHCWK

[5] = target: Acetylcholine receptor subunit alpha (Homo sapiens) (UniProt P02708); assay: Inhibition of Nicotinic Acetylcholine D1, Bungarotoxin at 10 µM in the Eurofins-Panlabs radioligand binding assay (Eurofins_assay_258700); conditions: Compound concentration 10.0 uM
[6] = target: T1, Alpha-1A adrenergic receptor (Homo sapiens) (UniProt P35348); conditions: Rattus norvegicus; Compound concentration 10.0 uM
T1 sequence (whole entry): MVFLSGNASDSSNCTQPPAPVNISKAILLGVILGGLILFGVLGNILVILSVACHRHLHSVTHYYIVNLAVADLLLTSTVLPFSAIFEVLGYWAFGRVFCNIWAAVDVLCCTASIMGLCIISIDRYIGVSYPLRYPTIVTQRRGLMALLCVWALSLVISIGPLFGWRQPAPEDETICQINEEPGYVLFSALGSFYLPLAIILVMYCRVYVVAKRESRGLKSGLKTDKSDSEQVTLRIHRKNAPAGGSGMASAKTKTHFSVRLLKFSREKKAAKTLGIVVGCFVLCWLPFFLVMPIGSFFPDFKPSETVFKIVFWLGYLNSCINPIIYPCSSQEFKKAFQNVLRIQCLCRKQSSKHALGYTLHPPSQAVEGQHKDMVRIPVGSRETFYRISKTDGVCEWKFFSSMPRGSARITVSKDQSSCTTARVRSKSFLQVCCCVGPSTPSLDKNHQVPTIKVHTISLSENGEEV

[7] = target: T2, Muscarinic acetylcholine receptor M4 (Homo sapiens) (UniProt P08173); conditions: Compound concentration 10.0 uM
T2 sequence (whole entry): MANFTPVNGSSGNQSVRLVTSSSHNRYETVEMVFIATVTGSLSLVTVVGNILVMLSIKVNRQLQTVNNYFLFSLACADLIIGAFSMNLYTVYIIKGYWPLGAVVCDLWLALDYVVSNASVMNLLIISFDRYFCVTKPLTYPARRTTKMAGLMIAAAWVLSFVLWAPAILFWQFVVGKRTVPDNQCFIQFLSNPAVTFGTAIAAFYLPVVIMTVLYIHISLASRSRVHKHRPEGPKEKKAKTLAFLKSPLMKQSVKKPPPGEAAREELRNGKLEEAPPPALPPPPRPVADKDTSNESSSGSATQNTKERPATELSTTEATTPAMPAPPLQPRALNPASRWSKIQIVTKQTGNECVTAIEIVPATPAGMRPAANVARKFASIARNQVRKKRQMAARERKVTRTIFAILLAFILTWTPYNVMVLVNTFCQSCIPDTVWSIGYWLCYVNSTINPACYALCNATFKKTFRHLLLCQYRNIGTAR

[8] = target: Corticotropin-releasing factor receptor 1 (Homo sapiens) (UniProt P34998); assay: Corticotropin Releasing Factor CRF1 Eurofins-Panlabs radioligand binding assay; conditions: Compound concentration 10.0 uM
[9] = target: T3, Muscarinic acetylcholine receptor M5 (Homo sapiens) (UniProt P08912); assay: Inhibition of Muscarinic M5 at 10 µM in the Eurofins-Panlabs radioligand binding assay (Eurofins_assay_253010); design: ligand concentration 0.8 nM; conditions: Compound concentration 10.0 uM
T3 sequence (whole entry): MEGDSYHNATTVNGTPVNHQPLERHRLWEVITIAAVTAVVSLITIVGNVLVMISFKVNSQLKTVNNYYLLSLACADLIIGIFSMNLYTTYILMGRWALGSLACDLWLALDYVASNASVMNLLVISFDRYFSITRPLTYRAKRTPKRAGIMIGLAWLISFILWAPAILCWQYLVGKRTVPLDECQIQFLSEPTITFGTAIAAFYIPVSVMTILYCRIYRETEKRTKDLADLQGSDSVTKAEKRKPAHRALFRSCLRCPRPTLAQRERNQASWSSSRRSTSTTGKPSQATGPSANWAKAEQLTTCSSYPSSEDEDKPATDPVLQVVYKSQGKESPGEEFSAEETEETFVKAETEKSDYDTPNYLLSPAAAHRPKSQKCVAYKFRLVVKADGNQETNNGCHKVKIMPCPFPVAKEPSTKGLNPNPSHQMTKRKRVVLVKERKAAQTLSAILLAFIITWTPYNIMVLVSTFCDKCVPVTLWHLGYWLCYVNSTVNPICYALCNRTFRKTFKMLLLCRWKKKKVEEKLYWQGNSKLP

[10] = target: Thyrotropin-releasing hormone receptor (Homo sapiens) (UniProt P34981); assay: Thyrotropin Releasing Hormone (TRH) Eurofins-Panlabs radioligand binding assay; design: ligand concentration 3 nM; conditions: Rattus norvegicus; Compound concentration 10.0 uM
[11] = target: Glutamate NMDA receptor (Rattus norvegicus) (UniProt P35439+Q00959+Q00960+Q00961+Q62645+Q8VHN2+Q9R1M7); conditions: Compound concentration 10.0 uM
[12] = target: Vasopressin V1a receptor (Homo sapiens) (UniProt P37288); conditions: Compound concentration 10.0 uM
Vasopressin V1a receptor (Homo sapiens), sequence (P37288 whole entry, looked up): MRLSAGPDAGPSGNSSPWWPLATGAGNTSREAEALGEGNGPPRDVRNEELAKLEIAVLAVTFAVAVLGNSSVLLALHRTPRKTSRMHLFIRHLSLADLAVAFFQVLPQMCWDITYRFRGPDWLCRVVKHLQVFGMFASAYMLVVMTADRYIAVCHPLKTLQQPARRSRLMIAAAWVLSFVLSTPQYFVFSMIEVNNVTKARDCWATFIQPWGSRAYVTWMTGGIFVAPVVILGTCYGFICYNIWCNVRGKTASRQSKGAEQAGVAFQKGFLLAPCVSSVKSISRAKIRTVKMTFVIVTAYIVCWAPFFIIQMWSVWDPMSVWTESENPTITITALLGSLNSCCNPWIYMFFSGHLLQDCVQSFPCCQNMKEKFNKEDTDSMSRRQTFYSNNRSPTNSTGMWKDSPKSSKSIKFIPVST

[13] = target: Alpha-2A adrenergic receptor (Homo sapiens) (UniProt P08913); assay: Adrenergic alpha2A Eurofins-Panlabs radioligand binding assay; design: ligand concentration 1 nM, non-specific ligand with concentration 10 µM WB-4101, incubation time 60 min, incubation temperature 25 °C; conditions: Compound concentration 10.0 uM
Alpha-2A adrenergic receptor (Homo sapiens), sequence (P08913 whole entry): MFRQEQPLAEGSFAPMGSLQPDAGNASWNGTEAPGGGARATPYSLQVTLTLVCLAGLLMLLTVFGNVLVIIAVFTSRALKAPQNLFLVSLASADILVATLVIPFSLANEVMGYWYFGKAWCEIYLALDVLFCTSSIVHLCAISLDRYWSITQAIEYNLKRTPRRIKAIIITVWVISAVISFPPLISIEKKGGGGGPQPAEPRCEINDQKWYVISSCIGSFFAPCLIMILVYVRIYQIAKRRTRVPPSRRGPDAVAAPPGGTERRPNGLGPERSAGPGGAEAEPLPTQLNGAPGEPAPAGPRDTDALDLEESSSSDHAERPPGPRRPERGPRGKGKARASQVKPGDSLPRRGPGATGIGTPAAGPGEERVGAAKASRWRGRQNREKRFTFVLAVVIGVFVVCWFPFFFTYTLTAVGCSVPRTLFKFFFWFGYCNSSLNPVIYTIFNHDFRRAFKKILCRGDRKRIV

[14] = target: Glutamate receptor 2 (Homo sapiens) (UniProt P42262); conditions: Rattus norvegicus; Compound concentration 10.0 uM
Glutamate receptor 2 (Homo sapiens), sequence (P42262 whole entry): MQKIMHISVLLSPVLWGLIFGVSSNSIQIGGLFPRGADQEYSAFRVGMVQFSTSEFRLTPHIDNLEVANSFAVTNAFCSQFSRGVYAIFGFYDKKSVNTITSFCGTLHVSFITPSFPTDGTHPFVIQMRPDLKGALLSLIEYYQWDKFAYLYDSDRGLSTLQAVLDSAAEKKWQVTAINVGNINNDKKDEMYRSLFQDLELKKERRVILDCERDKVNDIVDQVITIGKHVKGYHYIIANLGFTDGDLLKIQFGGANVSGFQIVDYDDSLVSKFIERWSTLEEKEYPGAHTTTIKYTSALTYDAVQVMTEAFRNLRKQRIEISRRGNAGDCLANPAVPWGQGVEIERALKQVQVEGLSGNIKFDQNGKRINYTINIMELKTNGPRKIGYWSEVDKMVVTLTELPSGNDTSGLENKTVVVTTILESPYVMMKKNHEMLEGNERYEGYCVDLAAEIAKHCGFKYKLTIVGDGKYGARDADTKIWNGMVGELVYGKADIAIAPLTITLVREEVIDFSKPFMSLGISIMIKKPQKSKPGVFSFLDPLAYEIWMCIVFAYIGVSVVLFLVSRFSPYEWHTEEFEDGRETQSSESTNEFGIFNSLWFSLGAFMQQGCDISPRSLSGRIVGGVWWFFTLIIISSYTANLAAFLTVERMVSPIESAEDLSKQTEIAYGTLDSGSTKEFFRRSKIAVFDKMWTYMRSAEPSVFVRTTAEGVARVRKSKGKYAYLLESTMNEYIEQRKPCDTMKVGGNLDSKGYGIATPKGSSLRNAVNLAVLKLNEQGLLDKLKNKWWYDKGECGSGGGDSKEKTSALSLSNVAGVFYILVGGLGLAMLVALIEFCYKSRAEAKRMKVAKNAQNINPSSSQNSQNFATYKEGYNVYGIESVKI

[15] = target: Substance-K receptor (Homo sapiens) (UniProt P21452); assay: Inhibition of Tachykinin NK2 at 10 µM in the Eurofins-Panlabs radioligand binding assay (Eurofins_assay_255600); design: ligand concentration 0.5 nM; conditions: Compound concentration 10.0 uM
Substance-K receptor (Homo sapiens), sequence (P21452 whole entry): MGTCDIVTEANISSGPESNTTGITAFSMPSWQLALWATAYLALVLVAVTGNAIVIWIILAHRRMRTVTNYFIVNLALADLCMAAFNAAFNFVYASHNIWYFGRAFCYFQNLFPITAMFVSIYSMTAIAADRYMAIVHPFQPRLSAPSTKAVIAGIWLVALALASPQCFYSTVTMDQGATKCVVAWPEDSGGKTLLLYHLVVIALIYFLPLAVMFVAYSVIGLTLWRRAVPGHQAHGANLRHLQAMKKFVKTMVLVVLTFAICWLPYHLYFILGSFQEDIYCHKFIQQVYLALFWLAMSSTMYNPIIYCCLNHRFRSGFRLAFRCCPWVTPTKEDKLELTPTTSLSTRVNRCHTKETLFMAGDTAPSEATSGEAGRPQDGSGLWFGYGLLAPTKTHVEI

[16] = target: Adenosine Transporter (Cavia porcellus) (UniProt H0V4R7+H0UUG1+H0V3Z5); assay: (§1) Inhibition of Transporter, Adenosine at compound concentration of 10.0 uM in the Eurofins-Panlabs radioligand binding assay (Eurofins_assay_202000); assay type: protein assay; design: ligand concentration 0.5 nM, non-specific ligand with concentration 5 uM Nitrobenzylthioinosine, incubation time 30 min, incubation temperature 25 C
Adenosine Transporter = Adenosine Transporter (Cavia porcellus, UniProt H0V4R7+H0UUG1+H0V3Z5); assay: as §1; assay type: protein assay; design: ligand concentration 0.5 nM, non-specific ligand with concentration 5 uM Nitrobenzylthioinosine, incubation time 30 min, incubation temperature 25 C
[17] = target: Sodium-dependent noradrenaline transporter (Homo sapiens) (UniProt P23975); conditions: Compound concentration 10.0 uM
Rattus norvegicus = species on record: Rattus norvegicus; assay: GABAA, Ro-15-1788, Hippocampus Eurofins-Panlabs radioligand binding assay; design: ligand concentration 1 nM; conditions: Compound concentration 10.0 uM
[18] = target: Alpha-1D adrenergic receptor (Homo sapiens) (UniProt P25100); assay: Inhibition of Adrenergic alpha1D at 10 µM in the Eurofins-Panlabs radioligand binding assay (Eurofins_assay_203400); conditions: Compound concentration 10.0 uM
Alpha-1D adrenergic receptor (Homo sapiens), sequence (P25100 whole entry): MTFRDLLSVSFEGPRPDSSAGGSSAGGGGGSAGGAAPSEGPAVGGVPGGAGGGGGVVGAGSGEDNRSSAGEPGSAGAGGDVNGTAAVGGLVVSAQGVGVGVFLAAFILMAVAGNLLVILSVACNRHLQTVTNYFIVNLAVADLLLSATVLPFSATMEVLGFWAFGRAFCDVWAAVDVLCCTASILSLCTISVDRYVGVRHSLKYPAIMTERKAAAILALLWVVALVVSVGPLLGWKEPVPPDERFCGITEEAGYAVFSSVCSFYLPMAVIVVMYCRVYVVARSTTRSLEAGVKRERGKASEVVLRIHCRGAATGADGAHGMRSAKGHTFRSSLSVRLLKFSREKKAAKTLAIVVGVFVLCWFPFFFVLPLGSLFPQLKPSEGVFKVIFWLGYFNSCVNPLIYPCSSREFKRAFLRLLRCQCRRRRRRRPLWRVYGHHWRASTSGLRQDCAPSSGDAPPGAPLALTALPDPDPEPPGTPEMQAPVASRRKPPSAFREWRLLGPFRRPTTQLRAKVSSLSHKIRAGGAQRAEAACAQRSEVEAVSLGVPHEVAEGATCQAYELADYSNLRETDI

[19] = target: Histamine H1 receptor (Homo sapiens) (UniProt P35367); conditions: Compound concentration 10.0 uM
Histamine H1 receptor (Homo sapiens), sequence (P35367 whole entry): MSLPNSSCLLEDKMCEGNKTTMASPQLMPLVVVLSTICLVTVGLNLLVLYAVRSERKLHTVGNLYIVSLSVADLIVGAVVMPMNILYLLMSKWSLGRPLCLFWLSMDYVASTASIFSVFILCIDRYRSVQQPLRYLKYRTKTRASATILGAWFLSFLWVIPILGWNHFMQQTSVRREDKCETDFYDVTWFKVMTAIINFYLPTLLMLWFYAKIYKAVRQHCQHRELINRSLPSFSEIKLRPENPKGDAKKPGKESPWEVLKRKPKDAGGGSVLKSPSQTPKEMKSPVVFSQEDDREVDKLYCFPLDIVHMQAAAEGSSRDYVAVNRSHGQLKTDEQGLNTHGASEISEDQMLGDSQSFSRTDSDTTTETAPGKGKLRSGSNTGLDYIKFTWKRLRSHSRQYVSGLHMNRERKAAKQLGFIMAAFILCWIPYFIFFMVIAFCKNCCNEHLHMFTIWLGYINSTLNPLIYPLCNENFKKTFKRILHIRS

Caspase-9 (Homo sapiens) = Caspase-9 (Homo sapiens) (UniProt P55211); assay: Peptidase, CASP9 (Caspase 9) Eurofins-Panlabs enzyme assay; design: substrate with concentration; conditions: Compound concentration 10.0 uM

5-hydroxytryptamine receptor 3A (Homo sapiens), sequence (P46098 whole entry): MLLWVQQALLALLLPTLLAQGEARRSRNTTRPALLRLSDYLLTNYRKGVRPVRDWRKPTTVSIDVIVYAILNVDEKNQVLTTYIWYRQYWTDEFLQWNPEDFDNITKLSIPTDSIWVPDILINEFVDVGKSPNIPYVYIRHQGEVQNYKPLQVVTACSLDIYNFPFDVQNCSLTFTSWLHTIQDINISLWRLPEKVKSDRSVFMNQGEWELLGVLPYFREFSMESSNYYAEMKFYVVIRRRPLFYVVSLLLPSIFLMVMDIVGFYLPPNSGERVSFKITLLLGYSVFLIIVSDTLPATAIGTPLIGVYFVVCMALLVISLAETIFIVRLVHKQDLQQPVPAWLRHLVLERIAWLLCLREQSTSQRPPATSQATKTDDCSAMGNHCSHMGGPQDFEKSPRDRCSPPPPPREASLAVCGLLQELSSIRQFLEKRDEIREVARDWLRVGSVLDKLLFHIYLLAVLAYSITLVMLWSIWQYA
Mitogen-activated protein kinase kinase kinase 2 (Homo sapiens), sequence (Q9Y2U5 whole entry): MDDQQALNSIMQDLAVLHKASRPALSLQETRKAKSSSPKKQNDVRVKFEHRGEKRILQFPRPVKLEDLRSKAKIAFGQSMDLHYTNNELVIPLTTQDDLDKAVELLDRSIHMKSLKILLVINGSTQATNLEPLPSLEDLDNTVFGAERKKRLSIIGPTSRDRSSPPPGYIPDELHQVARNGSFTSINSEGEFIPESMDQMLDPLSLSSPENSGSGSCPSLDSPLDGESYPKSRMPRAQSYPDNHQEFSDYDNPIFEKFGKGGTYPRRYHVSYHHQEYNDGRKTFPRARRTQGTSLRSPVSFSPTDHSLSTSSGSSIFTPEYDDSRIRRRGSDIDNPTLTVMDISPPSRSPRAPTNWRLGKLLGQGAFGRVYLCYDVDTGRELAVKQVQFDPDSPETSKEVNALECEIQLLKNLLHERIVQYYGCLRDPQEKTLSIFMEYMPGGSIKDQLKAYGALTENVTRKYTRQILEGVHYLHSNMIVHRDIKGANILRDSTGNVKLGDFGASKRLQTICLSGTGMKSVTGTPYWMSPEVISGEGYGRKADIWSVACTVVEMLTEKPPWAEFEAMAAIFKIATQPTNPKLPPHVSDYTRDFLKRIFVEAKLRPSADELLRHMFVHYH

## CC(C)CC(=O)N1CCc2nc(-c3ccc(Br)cc3)nc(N(C)Cc3ccccc3)c2C1 [THPP-1-NC]
[1]
  inhibition: -4.38%
[2]
  residual activity: 100%
[3]
  residual activity: 100%

## COCCOc1nc(-c2ccc(Cl)nc2)nc2c1CN(C(=O)c1ncn3ccccc13)CC2 [THPP-1]
[4]
  inhibition: -1%
[5]
  inhibition: -3%
[6]
  inhibition: 9%
[7]
  inhibition: 5%
[8]
  inhibition: 12%
[9]
  inhibition: 1%
[10]
  inhibition: 7%
[11]
  inhibition: 0%
[12]
  inhibition: 1%
[13]
  inhibition: -3%
[14]
  inhibition: -10%
[15]
  inhibition: 18%
[16]; Compound concentration 0.01 uM
  inhibition: -6%
[16]; Compound concentration 0.1 uM
  inhibition: 21%
[16]; Compound concentration 1.0 uM
  inhibition: 40%
[16]; Compound concentration 10.0 uM
  inhibition: 75%
Adenosine Transporter
  IC50: 1.61 µM
  Ki: 0.55 µM
[17]
  inhibition: -6.81%
Rattus norvegicus
  inhibition: 37%
[18]
  inhibition: 45%
[19]
  inhibition: 0%
Caspase-9 (Homo sapiens)
  inhibition: -5%
